Like-named read-outs stand apart in the source and are kept apart here.
Legend:
[1] = tested on: SW480 (human colon adenocarcinoma cell lines); assay: CCK8 cytotoxicity assay; type: cell-based; details: for IC50: read-out: IC50 SW480; for inhibition at 2.5 µM / inhibition at 25 µM: read-out: growth inhibition ratio (mean ± SD)
Method: (§1) Cytotoxicity screens were performed to assess the in vitro anticancer activity of the synthesized sinomenine derivatives 6a–6l on the various cancer cell lines MCF-7, Hela, SW480, and A549, as well as on Hek293 as a normal cell line, at doses of 2.5 and 25 μM. The obtained inhibition ratios data were used to construct a heat map (Figure 3, Tables S1 and S2) in order to select compounds that exert cancer cell line-specific cytotoxicity. Then, the IC50 values of the promising compound were determined. Cisplatin was used as a reference standard. The antiproliferative activity was based on the evaluation of the percent viability using the CCK8 assay, which is a rapid and sensitive method for determining the number of viable cells in culture. In the presence of electronic coupling reagents, WST-8 can be reduced by a dehydrogenase in the mitochondria to produce a highly water-soluble orange-yellow formazan product. Its color is proportional to the proliferation of the number of viable cells and is related to cytotoxicity. Using a microplate reader to measure the OD value can indirectly reflect the number of living cells at 450 nm wavelength.
(§2) To understand structure–function relationships, these selected compounds were subjected to subsequent analyses. All six compounds (6a and 6c–6g) were further examined to determine their IC50 concentrations on the previously mentioned cell lines, and their efficacy was compared to the reference drug cisplatin. For this, six compounds and cisplatin were evaluated on Hela, MCF-7, SW480, and A549, and on noncancerous Hek293 cell lines at various concentrations for 60 h. IC50 values were calculated (Table 2).
(§3) The MCF-7 (human breast cancer cell lines), Hela (human cervical cancer cell lines), SW480 (human colon adenocarcinoma cell lines), A549 (human lung adenocarcinoma cell lines) and nontoxic normal cells Hek293 (human embryonic kidney cell lines) cells were used to measure the cytotoxicity of the 6a–6l. They were obtained from the Beijing Normal University (Beijing, China). The test cell lines were cultured in DMEM, IMDM, F12 and DMEM nutrient medium containing 10% heat-inactivated fetal bovine serum, […] and 100 units/mL penicillin in a humified, 5% (v/v) CO2 atmosphere at 37 °C.
(§4) Cell viability was estimated using the CCK8 assay. Tumor cells ([…]) viz. MCF-7, Hela, SW480, A549 and nontoxic normal cells Hek293 were seeded in medium containing Corning® 96-well tissue culture plates at confluences of […], respectively, in Incucyte ZOOM. Fresh medium (100 μL) containing different concentrations of the test sample was added after 12 h of seeding. The microtiter plates were incubated at 37 °C in a humidified incubator with 5% CO2 for 60 h. Triplicates from each concentration were used. Negative control cells were incubated without sample and cisplatin as a positive control. At the end of treatment, the numbers of viable cells were determined by the CCK8 test. In brief, the media was removed from the 96 well plates and replaced with 100 μL of fresh culture medium with 10% CCK8 solution added to each well including the untreated controls. The 96 well plates were then incubated at 37 °C and 5% CO2 for 1–4 h. Then, the absorbance was measured at 450 nm using a BMG LABTECH®-POLAR star Omega microplate reader (Ortenberg, Germany) to determine the number of viable cells, and the percentage of viability was calculated as ((ODt- ODb/ODc- ODb)) × 100%, where ODt is the mean optical density of wells treated with the tested sample, ODc is the mean optical density of wells treated with DMSO and ODb is the mean optical density of PBS wells without cells. The relation between surviving cells and drug concentrations were plotted to get the survival curve of each tumor cell line after treatment with the specified compound. […]

[2] = tested on: Hela (human cervical cancer cell lines); assay: CCK8 cytotoxicity assay; type: cell-based; details: for IC50: read-out: IC50 Hela; for inhibition at 2.5 µM / inhibition at 25 µM: read-out: growth inhibition ratio (mean ± SD)
Method: as §1, §2, §3, §4

[3] = tested on: A549 (human lung adenocarcinoma cell lines); assay: CCK8 cytotoxicity assay; type: cell-based; details: for IC50: read-out: IC50 A549; for inhibition at 2.5 µM / inhibition at 25 µM: read-out: growth inhibition ratio (mean ± SD)
Method: as §1, §2, §3, §4

[4] = tested on: MCF-7 (human breast cancer cell lines); assay: CCK8 cytotoxicity assay; type: cell-based; details: for IC50: read-out: IC50 MCF-7; for inhibition at 2.5 µM / inhibition at 25 µM: read-out: growth inhibition ratio (mean ± SD)
Method: as §1, §2, §3, §4

[5] = tested on: Hek293 (human embryonic kidney cell lines); assay: CCK8 cytotoxicity assay, normal cells; type: cell-based; details: for IC50: read-out: IC50 Hek293; for inhibition at 2.5 µM / inhibition at 25 µM: read-out: growth inhibition ratio (mean ± SD)
Method: as §1, §2, §3, §4

[6] = CCK8, 60 h, mean ± SD of three independent experiments

Structure (SMILES) | melting point [°C] | inhibition at 2.5 µM ([1]; Homo sapiens, SW480, 60 h) [%] | inhibition at 25 µM ([1]; Homo sapiens, SW480, 60 h) [%] | inhibition at 2.5 µM ([2]; Homo sapiens, HeLa, 60 h) [%] | inhibition at 25 µM ([2]; Homo sapiens, HeLa, 60 h) [%] | inhibition at 2.5 µM ([3]; Homo sapiens, A549, 60 h) [%] | inhibition at 25 µM ([3]; Homo sapiens, A549, 60 h) [%] | inhibition at 2.5 µM ([4]; Homo sapiens, MCF7, 60 h) [%] | inhibition at 25 µM ([4]; Homo sapiens, MCF7, 60 h) [%] | inhibition at 2.5 µM ([5]; Homo sapiens, HEK293, 60 h) [%] | inhibition at 25 µM ([5]; Homo sapiens, HEK293, 60 h) [%] | further results
COC1=C[C@@H]2[C@@H]3Cc4c(CN5CCCCC5)cc(OC)c(OC(=O)Cc5ccc(Cl)cc5)c4[C@]2(CCN3C)CC1=O [5a, (4bR,8aS,9S)-3,7-dimethoxy-11-methyl-6-oxo-1-(piperidin-1-ylmethyl)-6,8a,9,10-tetrahydro-5H-9,4b-(epiminoethano)phenanthren-4-yl 2-(4-chlorophenyl)acetate] | 105 to 107 | – | – | – | – | – | – | – | – | – | – | –
COC1=C[C@@H]2[C@@H]3Cc4c(CN5CCCCC5)cc(OC)c(OC(=O)Cc5ccccc5)c4[C@]2(CCN3C)CC1=O [5b, (4bR,8aS,9S)-3,7-dimethoxy-11-methyl-6-oxo-1-(piperidin-1-ylmethyl)-6,8a,9,10-tetrahydro-5H-9,4b-(epiminoethano)phenanthren-4-yl 2-phenylacetate] | 192 to 194 | – | – | – | – | – | – | – | – | – | – | –
COC1=C[C@@H]2[C@@H]3Cc4c(CN5CCCCC5)cc(OC)c(OC(=O)Cc5ccc(OC)c(OC)c5)c4[C@]2(CCN3C)CC1=O [5c, (4bR,8aS,9S)-3,7-dimethoxy-11-methyl-6-oxo-1-(piperidin-1-ylmethyl)-6,8a,9,10-tetrahydro-5H-9,4b-(epiminoethano)phenanthren-4-yl 2-(3,4-dimethoxyphenyl)acetate] | 151 to 154 | – | – | – | – | – | – | – | – | – | – | –
COC1=C[C@@H]2[C@@H]3Cc4c(CN5CCCCC5)cc(OC)c(OC(=O)Cc5ccccc5C)c4[C@]2(CCN3C)CC1=O [5d, (4bR,8aS,9S)-3,7-dimethoxy-11-methyl-6-oxo-1-(piperidin-1-ylmethyl)-6,8a,9,10-tetrahydro-5H-9,4b-(epiminoethano)phenanthren-4-yl 2-(o-tolyl)acetate] | 177 to 178 | – | – | – | – | – | – | – | – | – | – | –
COC1=C[C@@H]2[C@@H]3Cc4c(CN5CCCCC5)cc(OC)c(OC(=O)CCc5ccccc5)c4[C@]2(CCN3C)CC1=O [5e, (4bR,8aS,9S)-3,7-dimethoxy-11-methyl-6-oxo-1-(piperidin-1-ylmethyl)-6,8a,9,10-tetrahydro-5H-9,4b-(epiminoethano)phenanthren-4-yl 3-phenylpropanoate] | 181 to 185 | – | – | – | – | – | – | – | – | – | – | –
COC1=C[C@@H]2[C@@H]3Cc4c(CN5CCCCC5)cc(OC)c(OC(=O)Cc5ccccc5Cl)c4[C@]2(CCN3C)CC1=O [5f, (4bR,8aS,9S)-3,7-dimethoxy-11-methyl-6-oxo-1-(piperidin-1-ylmethyl)-6,8a,9,10-tetrahydro-5H-9,4b-(epiminoethano)phenanthren-4-yl 2-(2-chlorophenyl)acetate] | 188 to 190 | – | – | – | – | – | – | – | – | – | – | –
COC1=C[C@@H]2[C@@H]3Cc4c(CN5CCCCC5)cc(OC)c(OC(=O)Cc5ccc(OC)cc5)c4[C@]2(CCN3C)CC1=O [5h, (4bR,8aS,9S)-3,7-dimethoxy-11-methyl-6-oxo-1-(piperidin-1-ylmethyl)-6,8a,9,10-tetrahydro-5H-9,4b-(epiminoethano)phenanthren-4-yl 2-(4-methoxyphenyl)acetate] | 121 to 122 | – | – | – | – | – | – | – | – | – | – | –
COC1=C[C@@H]2[C@@H]3Cc4c(CN5CCCCC5)cc(OC)c(OC(=O)Cc5ccc(F)cc5)c4[C@]2(CCN3C)CC1=O [5k, (4bR,8aS,9S)-3,7-dimethoxy-11-methyl-6-oxo-1-(piperidin-1-ylmethyl)-6,8a,9,10-tetrahydro-5H-9,4b-(epiminoethano)phenanthren-4-yl 2-(4-fluorophenyl)acetate] | 128 to 130 | – | – | – | – | – | – | – | – | – | – | –
COC1=C[C@@H]2[C@@H]3Cc4c(CN5CCCC5)cc(OC)c(OC(=O)Cc5ccc(Cl)cc5)c4[C@]2(CCN3C)CC1=O [6a, (4bR,8aS,9S)-3,7-dimethoxy-11-methyl-6-oxo-1-(pyrrolidin-1-ylmethyl)-6,8a,9,10-tetrahydro-5H-9,4b-(epiminoethano)phenanthren-4-yl 2-(4-chlorophenyl)acetate] | 162 to 165 | 12.9 ± 6.52 | 82.3 ± 4.36 | 7.81 ± 5.42 | 88.49 ± 0.67 | 3.41 ± 0.82 | 37.4 ± 0.39 | 0 | 85.3 ± 1.62 | 17.9 ± 1.86 | 61.1 ± 4.71 | IC50 ([1]; Homo sapiens, SW480, 60 h): 14.94 ± 0.06 µM; IC50 ([2]; Homo sapiens, HeLa, 60 h): 11.5 ± 1.04 µM; IC50 ([3]; Homo sapiens, A549, 60 h): > 25 µM; IC50 ([4]; Homo sapiens, MCF7, 60 h): 14.3 ± 0.83 µM; IC50 ([5]; Homo sapiens, HEK293, 60 h): 13 ± 0.62 µM
COC1=C[C@@H]2[C@@H]3Cc4c(CN5CCCC5)cc(OC)c(OC(=O)Cc5ccc(OC)c(OC)c5)c4[C@]2(CCN3C)CC1=O [6b, (4bR,8aS,9S)-3,7-dimethoxy-11-methyl-6-oxo-1-(pyrrolidin-1-ylmethyl)-6,8a,9,10-tetrahydro-5H-9,4b-(epiminoethano)phenanthren-4-yl 2-(3,4-dimethoxyphenyl)acetate] | 80 to 83 | 22.9 ± 6.49 | 29.5 ± 11.2 | 2.03 ± 2.29 | 11.5 ± 4.88 | 0 | 30.9 ± 0.32 | 3.63 ± 3.16 | 2.7 ± 4.67 | 0.66 ± 1.14 | 45.9 ± 1.35 | –
COC1=C[C@@H]2[C@@H]3Cc4c(CN5CCCC5)cc(OC)c(OC(=O)Cc5ccccc5Cl)c4[C@]2(CCN3C)CC1=O [6c, (4bR,8aS,9S)-3,7-dimethoxy-11-methyl-6-oxo-1-(pyrrolidin-1-ylmethyl)-6,8a,9,10-tetrahydro-5H-9,4b-(epiminoethano)phenanthren-4-yl 2-(2-chlorophenyl)acetate] | 79 to 83 | 28.3 ± 6.91 | 58.4 ± 7.58 | 3.05 ± 3.91 | 53.5 ± 2.45 | 16.3 ± 0.63 | 49.4 ± 0.59 | 0 | 42 ± 3.02 | 13.8 ± 2.27 | 54.6 ± 2.29 | IC50 ([1]; Homo sapiens, SW480, 60 h): > 25 µM; IC50 ([2]; Homo sapiens, HeLa, 60 h): > 25 µM; IC50 ([3]; Homo sapiens, A549, 60 h): 18.7 ± 0.7 µM; IC50 ([4]; Homo sapiens, MCF7, 60 h): > 25 µM; IC50 ([5]; Homo sapiens, HEK293, 60 h): 6.52 ± 0.19 µM
COC1=C[C@@H]2[C@@H]3Cc4c(CN5CCCC5)cc(OC)c(OC(=O)Cc5ccc(Cl)cc5Cl)c4[C@]2(CCN3C)CC1=O [6d, (4bR,8aS,9S)-3,7-dimethoxy-11-methyl-6-oxo-1-(pyrrolidin-1-ylmethyl)-6,8a,9,10-tetrahydro-5H-9,4b-(epiminoethano)phenanthren-4-yl 2-(2,4-dichlorophenyl)acetate] | 82 to 86 | 29.1 ± 6.92 | 94.2 ± 3.21 | 10.3 ± 4.44 | 93.1 ± 0.17 | 29.59 ± 0.16 | 93.02 ± 0.2 | 0 | 88.6 ± 2.73 | 42.6 ± 0.84 | 84.6 ± 4.34 | IC50 ([1]; Homo sapiens, SW480, 60 h): 6.08 ± 0.28 µM; IC50 ([2]; Homo sapiens, HeLa, 60 h): 8.2 ± 0.52 µM; IC50 ([3]; Homo sapiens, A549, 60 h): 11.6 ± 1.61 µM; IC50 ([4]; Homo sapiens, MCF7, 60 h): 5.73 ± 0.36 µM; IC50 ([5]; Homo sapiens, HEK293, 60 h): 3.46 ± 0.02 µM
N.N.[Cl][Pt][Cl] [Cisplatin, reference compound] | – | – | – | – | – | – | – | – | – | – | – | IC50 [1, 6]: 1.98 ± 0.15 µM; IC50 [2, 6]: 4.57 ± 0.43 µM; IC50 [3, 6]: 14.3 ± 0.7 µM; IC50 [4, 6]: 3.45 ± 0.82 µM; IC50 ([5]; normal cell line, CCK8, 60 h, mean ± SD of three independent experiments): 3.19 ± 0.6 µM
